Source: paper PMC9776381, “A Large-Scale High-Throughput Screen for Modulators of SERCA Activity” (Biomolecules, 2022)
Entries after “also recorded” stand apart in the source; their conditions may differ.

Experiments:
[1] = molecular target: T1, SERCA2a (cardiac SR vesicles) (Sus scrofa, UniProt P11607); experiment: NADH-coupled Ca-ATPase activity assay, cardiac SR (CRC at pCa 5.4); assay type: biochemical, porcine; details: pCa 5.4, mean ± SD, n = 3; for Cardiac SR ATPase Activity Percent Increase: maximal effect of CRC
T1 construct: Cardiac SR vesicles were isolated from fresh porcine left ventricular tissue; from tissue; host or cells: porcine left ventricular tissue, cardiac SR vesicles
T1 sequence (P11607 1-997 isoform P11607-2): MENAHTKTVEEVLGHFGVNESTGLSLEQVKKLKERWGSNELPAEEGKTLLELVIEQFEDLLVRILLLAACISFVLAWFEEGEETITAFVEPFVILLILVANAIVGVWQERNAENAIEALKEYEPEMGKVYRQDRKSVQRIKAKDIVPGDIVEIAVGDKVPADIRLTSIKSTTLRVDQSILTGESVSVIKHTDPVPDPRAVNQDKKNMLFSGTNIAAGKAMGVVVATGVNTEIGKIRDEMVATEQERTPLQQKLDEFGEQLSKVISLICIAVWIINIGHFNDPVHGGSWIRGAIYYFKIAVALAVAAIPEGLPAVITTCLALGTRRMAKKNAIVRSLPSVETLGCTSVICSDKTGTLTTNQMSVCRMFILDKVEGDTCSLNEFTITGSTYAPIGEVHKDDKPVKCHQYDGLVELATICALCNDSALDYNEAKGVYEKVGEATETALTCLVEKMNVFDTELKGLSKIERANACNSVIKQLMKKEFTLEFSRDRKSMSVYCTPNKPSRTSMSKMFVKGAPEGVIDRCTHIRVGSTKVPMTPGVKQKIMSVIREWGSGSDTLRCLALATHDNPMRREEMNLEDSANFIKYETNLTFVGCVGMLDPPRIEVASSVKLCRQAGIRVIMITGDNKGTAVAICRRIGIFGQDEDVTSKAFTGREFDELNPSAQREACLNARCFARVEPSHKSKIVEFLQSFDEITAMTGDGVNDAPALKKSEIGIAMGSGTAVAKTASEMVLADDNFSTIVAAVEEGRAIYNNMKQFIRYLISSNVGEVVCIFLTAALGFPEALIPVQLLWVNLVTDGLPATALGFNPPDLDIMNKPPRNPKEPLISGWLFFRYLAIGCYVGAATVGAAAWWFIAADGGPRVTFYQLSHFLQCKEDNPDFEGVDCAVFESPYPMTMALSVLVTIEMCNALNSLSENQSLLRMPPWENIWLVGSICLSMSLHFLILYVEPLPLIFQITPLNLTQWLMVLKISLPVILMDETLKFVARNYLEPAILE
Description: (§1) For skeletal SR, rabbit muscles were freshly harvested from the back and hind leg of New Zealand White rabbits and purified using a sucrose gradient. The resulting light skeletal SR contains 80% SERCA, as a proportion of total protein content. Cardiac SR vesicles were isolated from fresh porcine left ventricular tissue.
(§2) Functional assays were performed using rabbit light skeletal sarcoplasmic (SR) vesicles. For high-throughput NADH-coupled screening, assay mix containing a final concentration of 50 mM MOPS (pH 7.0), 100 mM KCl, 1 mM EGTA, 0.2 mM NADH, 1 mM phosphoenol pyruvate, 10 IU/mL of pyruvate kinase, 10 IU/mL of lactate dehydrogenase, 1 µM of the calcium ionophore A23187, 4 µg/mL skeletal SR, and added CaCl2 to obtain pCa 5.4 was dispensed into 384-well DIVERSet assay plates containing 50 nL of compound or DMSO using a FlexDrop Precision liquid dispenser (Perkin Elmer, Waltham, Massachusetts). Plates were sealed, covered from light, and incubated at room temperature for 20 min. The assay was then started by dispensing MgATP (termed “initiation mix”), to a final concentration of 5 mM in each well (80 µL total assay volume) with the FlexDrop liquid dispenser (Perkin Elmer). The time dependence of absorbance was measured at 340 nm in a SpectraMax Plus384 microplate spectrophotometer (Molecular Devices, Sunnyvale, CA). For follow-up concentration response curves of Hit compounds, 400 nL of either compound or DMSO was dispensed into each well using an Echo liquid dispenser (Beckman Coulter). Testing dose-dependent compound effects on rabbit skeletal SR vesicles was done using the same method, as described above in 384-well plates. Determining compound effects on cardiac SR vesicles was done in a similar method as above, with the exception of 10 µg/mL of cardiac SR incubated in assay mix consisting of a final concentration of 50 mM MOPS (pH 7.0), 100 mM KCl, 1 mM EGTA, 1 µM of the calcium ionophore A23187, and added CaCl2 to the desired free calcium values. After a 20 min incubation, the “initiation mix”, containing a final concentration of 0.2 mM NADH, 1 mM phosphoenol pyruvate, 10 IU/mL of pyruvate kinase, 10 IU/mL of lactate dehydrogenase, and 5mM MgATP, was dispensed into each well.
While initial screening was performed in skeletal SR enriched with the SERCA1a isoform, high sequence and structural homology with the cardiac SERCA2a isoform predicts a potential for cross reactivity of the Hit compounds. To test this hypothesis, we performed ATPase analyses with cardiac SR microsomes, which are enriched for SERCA2a.

[2] = molecular target: T2, SERCA1a (rabbit light skeletal SR vesicles) (Oryctolagus cuniculus, UniProt P04191); experiment: NADH-coupled Ca-ATPase activity assay, skeletal SR (CRC at pCa 5.4); assay type: biochemical; details: n = 3; for Skeletal SR ATPase Activity Percent Increase: maximal effect of CRC 0.05 to 50 µM, pCa 5.4, relative to DMSO, mean ± SD; for EC50: pCa 5.4, mean ± SD
T2 construct: rabbit muscles were freshly harvested from the back and hind leg of New Zealand White rabbits and purified using a sucrose gradient; from tissue; host or cells: rabbit (New Zealand White) back and hind leg skeletal muscle, light SR vesicles
T2 sequence (P04191 1-994 isoform P04191-2): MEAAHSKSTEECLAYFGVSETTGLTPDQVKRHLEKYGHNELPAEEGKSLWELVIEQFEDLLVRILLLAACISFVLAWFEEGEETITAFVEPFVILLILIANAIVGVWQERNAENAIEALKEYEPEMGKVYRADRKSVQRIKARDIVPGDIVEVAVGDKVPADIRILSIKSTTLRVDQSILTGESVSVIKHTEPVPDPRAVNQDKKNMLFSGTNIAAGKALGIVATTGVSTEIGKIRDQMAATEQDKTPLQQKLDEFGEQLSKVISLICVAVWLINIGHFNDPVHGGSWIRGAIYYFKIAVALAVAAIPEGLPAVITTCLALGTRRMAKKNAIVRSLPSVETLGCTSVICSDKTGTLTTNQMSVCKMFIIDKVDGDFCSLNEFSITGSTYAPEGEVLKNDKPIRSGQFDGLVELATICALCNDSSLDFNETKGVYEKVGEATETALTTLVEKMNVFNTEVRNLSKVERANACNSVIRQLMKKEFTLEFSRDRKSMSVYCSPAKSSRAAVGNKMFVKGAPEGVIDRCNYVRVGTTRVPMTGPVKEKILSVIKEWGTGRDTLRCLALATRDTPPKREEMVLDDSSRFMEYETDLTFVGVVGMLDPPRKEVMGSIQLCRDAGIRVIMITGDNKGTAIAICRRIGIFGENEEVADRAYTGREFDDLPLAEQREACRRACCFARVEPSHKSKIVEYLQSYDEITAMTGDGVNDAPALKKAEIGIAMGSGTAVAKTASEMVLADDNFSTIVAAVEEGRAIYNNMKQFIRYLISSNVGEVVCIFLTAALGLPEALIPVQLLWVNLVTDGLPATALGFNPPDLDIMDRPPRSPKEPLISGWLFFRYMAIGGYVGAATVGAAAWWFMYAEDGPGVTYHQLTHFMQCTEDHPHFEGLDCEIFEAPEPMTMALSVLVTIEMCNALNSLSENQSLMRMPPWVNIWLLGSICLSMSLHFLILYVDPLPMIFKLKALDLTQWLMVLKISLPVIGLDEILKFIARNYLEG
Description: as §1, §2
The initial screen assay was performed with compounds at 10 µM. To better study the selected Hit compounds for their activation potential, we performed ATPase analyses (in triplicate) over a range of Hit concentrations (0.05 to 50 µM), generating concentration-response curves (CRCs) to determine maximal effects and EC50 (Figure 2). We used the same Ca^2+ concentration (pCa 5.4) as in the screening assays, thus focusing on the effects on the maximal velocity of SERCA. Two of the selected Hits yielded no response in follow-up assays, probably due to a mismatch in chemical composition between the library compound and the subsequently ordered compound (DS95401435 and DS41547941). This type of discrepancy is a typical hurdle in the screening process. Each of the other 19 compounds produced a substantial increase in ATPase activity, ranging from 30% to 72% (Table 1 and Supporting Information, Figure S1), as expected due to similarity of the CRC assay to the initial screen.

[3] = molecular target: T1, SERCA2a (cardiac SR vesicles); experiment: Oxalate-supported Ca2+-uptake assay, cardiac SR (CRC at pCa 5.4); assay type: biochemical, porcine; details: for Cardiac SR Ca^2+ Uptake Activity Percent Increase: maximal effect of CRC; for Cardiac SR Ca^2+ Uptake Activity Percent Increase / EC50: pCa 5.4, mean ± SD, dash = no observable effect; for Cardiac SR Ca^2+ Uptake Activity Percent Increase / EC50 / Compound classification from ATPase vs. Ca^2+ uptake CRCs, cardiac SR: n = 3; for EC50: read-out: Cardiac SR Ca^2+ Uptake Activity EC50
Description: as §1
(§3) To determine compound effect on the Ca^2+-uptake activity of SERCA1a and SERCA2a, we used an oxalate-supported assay. A solution containing 50 mM MOPS (pH 7.0), 100 mM KCl, 30 mg/mL sucrose, 1 mM EGTA, 10 mM potassium oxalate, 2 µM Fluo-4, 30 µg/mL cardiac SR vesicles or 12 μg/mL skeletal SR vesicles, and CaCl2 calculated to reach the desired free [Ca^2+] was dispensed into 384-well black walled, transparent bottomed plates (Greiner Bio-One) containing the tested small molecule and incubated at 21 °C for 20 min while covered and protected from light. To start the reaction, MgATP was added to a final concentration of 5 mM, and the decrease in 485-nm excited fluorescence was monitored at 520 nm for 15 min using a FLIPR Tetra (Molecular Devices, San Jose, CA, USA).
To determine whether the observed increases in SERCA2a ATPase activity translate to Ca^2+ uptake function, we applied our Ca^2+ transport assay to test our selected Hit compounds in cardiac SR (Table 1). Indeed, 16 of the 19 compounds yielded a clear increase in Ca^2+ uptake activity. In fact, eight compounds generated an increase at least 50% greater in cardiac SR than in skeletal SR. Three compounds had either an inhibitory or no effect on Ca^2+ transport, and two of these were also non-activating compounds in skeletal SR.

[4] = molecular target: T3, SERCA1a (skeletal SR vesicles) (Oryctolagus cuniculus, UniProt P04191); experiment: Oxalate-supported Ca2+-uptake assay, skeletal SR (CRC at pCa 5.4); assay type: biochemical, rabbit; details: for Skeletal SR Ca^2+ Uptake Activity Percent Increase: maximal effect of CRC; for Skeletal SR Ca^2+ Uptake Activity Percent Increase / EC50: pCa 5.4, mean ± SD, dash = no observable effect; for EC50: read-out: Skeletal SR Ca^2+ Uptake Activity EC50
T3 construct: rabbit muscles were freshly harvested from the back and hind leg of New Zealand White rabbits and purified using a sucrose gradient; from tissue; host or cells: rabbit (New Zealand White) back and hind leg skeletal muscle, light SR vesicles
T3 sequence (P04191 1-994 isoform P04191-2): as above
Description: as §1, §3
While Ca^2+-dependent ATPase activity is a direct measure of SERCA activity, coupling of ATP hydrolysis to transport of Ca^2+ across the SR membrane is essential for the role of SERCA in cellular physiology. Therefore, we next asked whether our ATPase-based HTS assay could successfully identify compounds that also increase Ca^2+ uptake of SERCA.

Row | Structure (SMILES) | Cardiac SR ATPase Activity Percent Increase [1] [%] | EC50 [1] [µM] | Skeletal SR ATPase Activity Percent Increase [2] [%] | EC50 [2] [µM] | Cardiac SR Ca^2+ Uptake Activity Percent Increase [3] [%] | EC50 [3] [nM] | Skeletal SR Ca^2+ Uptake Activity Percent Increase ([4]; n = 3) [%] | EC50 ([4]; n = 3) [nM] | Compound classification from ATPase vs. Ca^2+ uptake CRCs, cardiac SR ([3]; cardiac SR) | Compound classification from ATPase vs. Ca^2+ uptake CRCs, skeletal SR ([4]; skeletal SR, n = 3) | Ca^2+ uptake effect (in words), SR type not given ([4]; uncoupling compounds, cluster 5, tissue not stated) | Effect on Ca^2+ uptake activity in cardiac SR (in words) ([3]; cardiac SR, pCa 5.4) | Effect on Ca^2+ uptake activity in skeletal SR (in words) ([4]; skeletal SR, pCa 5.4)
1 | CCC(C)N(Cc1ccc(C)cc1)Cc1nccs1 (stereo not drawn) [Compound 1] | 42 ± 12 | 31 ± 10 | 50 ± 25 | 40 ± 21 | 32 ± 2 | 37000 ± 4000 | 27 ± 3 | 28000 ± 9000 | – | – | – | – | –
2 | C=CCN(Cc1ccccc1OCC)C(=O)C1CCC1 [Compound 5] | 58 ± 6 | 7.7 ± 2 | 41 ± 3 | 9 ± 1 | 16 ± 3 | 1000 ± 700 | 10 ± 1 | 1400 ± 600 | – | – | – | – | –
3 | CCOC(=O)C1(Cc2cccc(C(F)(F)F)c2)CCN(C(=O)c2sccc2C)CC1 [Compound 8] | 43 ± 2 | 3.4 ± 0.3 | 45 ± 2 | 4 ± 0.4 | 18 ± 2 | 800 ± 300 | 13 ± 1 | 1300 ± 400 | – | Improved Coupling Compounds | – | – | –
4 | Cc1ccsc1CN(C)C(=O)CC(c1ccccc1)c1ccc2c(c1)OCO2 (stereo not drawn) [Compound 11] | 62 ± 2 | 6.4 ± 0.4 | 61 ± 2 | 7.2 ± 0.4 | 18 ± 2 | 1200 ± 400 | 9.1 ± 0.8 | 1200 ± 300 | – | – | – | – | –
5 | Fc1ccc(N2CCCN(Cc3nc(C(c4ccccc4)c4ccccc4)no3)CC2)cc1 [Compound 12] | 29 ± 1 | 2.3 ± 0.3 | 41 ± 2 | 3.4 ± 0.4 | −10 ± 3 | 1300 ± 100 | 6.5 ± 0.5 | 600 ± 200 | Isoform-specific uncoupler | – | – | strong uncoupling effect; also recorded: inhibition of Ca^2+ uptake activity | significant activation; also recorded: small but significant increase
6 | CCc1cccc(NC(=O)CCC(=O)NCc2snnc2C)c1 [Compound 17] | 62 ± 5 | 9.4 ± 1 | 42 ± 4 | 16 ± 3 | – | – | – | – | – | – | little to no Ca^2+ uptake effect | – | –

Further compounds by falling EC50 [1], results first:

Row | Cardiac SR ATPase Activity Percent Increase [1] [%] | EC50 [1] [µM] | Skeletal SR ATPase Activity Percent Increase [2] [%] | EC50 [2] [µM] | Cardiac SR Ca^2+ Uptake Activity Percent Increase [3] [%] | EC50 [3] [nM] | Skeletal SR Ca^2+ Uptake Activity Percent Increase ([4]; n = 3) [%] | EC50 ([4]; n = 3) [nM] | Compound classification from ATPase vs. Ca^2+ uptake CRCs, cardiac SR ([3]; cardiac SR) | Compound classification from ATPase vs. Ca^2+ uptake CRCs, skeletal SR ([4]; skeletal SR, n = 3) | Ca^2+ uptake effect (in words), SR type not given ([4]; uncoupling compounds, cluster 5, tissue not stated) | Structure (SMILES) | Effect on Ca^2+ uptake activity in cardiac SR (in words) ([3]; cardiac SR, pCa 5.4) | Effect on Ca^2+ uptake activity in skeletal SR (in words) ([4]; skeletal SR, pCa 5.4)
7 | 63 ± 17 | 29 ± 12 | 45 ± 8 | 24 ± 6 | 17 ± 1 | 3800 ± 600 | 9 ± 1 | 4000 ± 1000 | – | – | – | CCCCN(Cc1ccsc1)C(=O)c1occc1C [Compound 6] | – | –
8 | 85 ± 5 | 11 ± 1 | 72 ± 2 | 13.3 ± 0.7 | 33 ± 3 | 4000 ± 800 | 31 ± 7 | 8000 ± 5000 | Linked Activating Compounds | – | – | CCOC(=O)C1(CCc2ccccc2)CCN(C(=O)c2occc2C)CC1 [Compound 9] | – | –
9 | 55 ± 2 | 7.5 ± 0.4 | 57 ± 3 | 10 ± 1 | 16 ± 3 | 1600 ± 700 | 11 ± 3 | 4000 ± 2000 | – | – | – | Cc1ccc(CN(C)C(=O)CC(c2ccccc2)c2ccc3c(c2)OCO3)o1 (stereo not drawn) [Compound 10] | – | –
10 | 48 ± 4 | 6.7 ± 1 | 54 ± 2 | 7.3 ± 0.5 | 37 ± 3 | 3500 ± 700 | 20 ± 1 | 3400 ± 500 | Improved Coupling Compounds | – | – | CCCSCC(=O)N(Cc1ccc(C)s1)C1CCCC1 [Compound 3] | – | –
11 | 58 ± 4 | 4.8 ± 0.6 | 53 ± 2 | 5.4 ± 0.4 | 24 ± 1 | 1600 ± 300 | 14 ± 2 | 1400 ± 500 | – | – | – | CCCN(Cc1ccccc1OC)C(=O)c1cc(C)c(C)s1 [Compound 4] | – | –
12 | 33 ± 3 | 2.9 ± 0.6 | 36 ± 2 | 4 ± 0.5 | 12 ± 1 | 1200 ± 200 | 15 ± 1 | 2200 ± 400 | – | – | – | COc1ncc(CN(Cc2sccc2C)CC(C)C)cn1 [Compound 2] | – | –
13 | 51 ± 3 | 2.9 ± 0.3 | 41 ± 3 | 3.6 ± 0.4 | 24 ± 3 | 1300 ± 400 | 14 ± 2 | 1400 ± 400 | Linked Activating Compounds | – | – | CCOC(=O)C1(CCCc2ccccc2)CCN(C(=O)CC2=CCCCC2)CC1 [Compound 7] | – | –
